Reference: US20140328799A1, “COMPOSITIONS USEFUL FOR THE TREATMENT OF VIRAL DISEASES” (priority 2011, published 2014)
“Also recorded” adds a separate entry of the source.

Tested on: HCV replicons encoding amino acid variations R155K, A156T, and D168Y in the NS3 protease
Assay: HCV replicon TaqMan assay, variants compared with wildtype
Assay type: cell-based, Hepatitis C virus
Conditions: NS3 protease variants versus wildtype genotype 1b (con1)
Description: The day prior to titration replicon cells are seeded into a 96-well Costar black-walled clear bottom plate (3,000 cells/well) in 100 μl complete D-MEM and incubated 0/N at 37° C. The next morning 25 μl of compound dilutions (5× final concentration) in complete DMEM and 5% DMSO are added, adjusting the final DMSO concentration to 1.0%. Cells with compound are incubated for 48 hours at 37° C.
Total RNA is isolated from cells of each well using the QIAGEN RNeasy 96-well kit according to manufacturer's instructions (QIAGEN, Inc. Valencia, Calif.). RNA is eluted twice in 60 μl aliquots and combined. […]
The normalized value for the amount of replicon RNA is determined by measuring the experimental cycle threshold CT as described above, determining the amount of RNA against a standard curve of total replicon cell RNA, and normalizing this to the signal produced by the cellular human Cyclophilin A gene using Taqman PDAR Human Cyclophilin (Applied Biosystems Inc., Foster City, Calif.).
HCV replicons encoding amino acid variations R155K, A156T, and D168Y in the NS3 protease have been constructed using standard techniques in molecular cloning. The susceptibility of these replicon variants to inhibition by Compound 6 and a Compound T4, was assessed in the HCV replicon assay, and the results are shown in Table 2. […]

Row | SMILES | change in susceptibility to inhibition of replicon variants versus wildtype
1 | CC[C@@H]1C[C@]1(NC(=O)[C@@H]1C[C@@H]2CN1C(=O)[C@H](C(C)(C)C)NC(=O)OCC(C)(C)CCCCc1cccc3c1CN(C3)C(=O)O2)C(=O)NS(=O)(=O)C1CC1 [Compound 6] | significantly reduced susceptibility to inhibition; also recorded: significant losses of potency
2 | C[C@@]1(O)[C@H](O)[C@@H](CO)O[C@H]1n1cnc2c(N)ncnc21 [Compound T4] | no significant change in susceptibility to inhibition; also recorded: no loss of potency
